The NIST ThermoML archive (doi:10.1021/je100715x)
± gives the expanded uncertainty stated by the source.

Experiments:
[1] = 101.33 kPa, Liquid; for viscosity: Capillary tube (Ostwald / Ubbelohde) method; for mass density: Vibrating tube method
[2] = refractive index (Na D-line) (dimensionless); conditions: 101.33 kPa, Liquid, Standard Abbe refractometry

Row | viscosity ([1]; 303.15 K) | mass density ([1]; 303.15 K) | viscosity ([1]; 308.15 K) | mass density ([1]; 308.15 K) | viscosity ([1]; 313.15 K) | mass density ([1]; 313.15 K) | refractive index ([2]; 298.15 K) | refractive index ([2]; 303.15 K) | refractive index ([2]; 308.15 K) | refractive index ([2]; 313.15 K) | SMILES
1 | 0.999 ± 0.013 mPa·s | 938.5 ± 0.4 kg/m3 | 0.927 ± 0.012 mPa·s | 933.9 ± 0.4 kg/m3 | 0.865 ± 0.011 mPa·s | 929 ± 0.4 kg/m3 | 1.4352 ± 0.0004 | 1.4335 ± 0.0004 | 1.431 ± 0.0004 | 1.429 ± 0.0004 | O=C1CCCC1 [cyclopentanone]
2 | 1.518 ± 0.02 mPa·s | 1019.9 ± 0.3 kg/m3 | 1.378 ± 0.018 mPa·s | 1016.9 ± 0.3 kg/m3 | 1.291 ± 0.016 mPa·s | 1013.5 ± 0.3 kg/m3 |  | 1.5294 ± 0.0004 | 1.527 ± 0.0004 | 1.525 ± 0.0004 | CC(=O)c1ccccc1 [acetophenone]
3 | 0.429 ± 0.006 mPa·s | 805.7 ± 0.3 kg/m3 | 0.397 ± 0.005 mPa·s | 801.7 ± 0.3 kg/m3 | 0.388 ± 0.005 mPa·s | 797.7 ± 0.4 kg/m3 |  | 1.3879 ± 0.0004 | 1.3857 ± 0.0004 | 1.3835 ± 0.0004 | CCC(=O)CC [pentan-3-one]
4 | 1.623 ± 0.021 mPa·s | 1066.1 ± 0.4 kg/m3 | 1.48 ± 0.019 mPa·s | 1060.5 ± 0.4 kg/m3 | 1.367 ± 0.018 mPa·s | 1054.5 ± 0.4 kg/m3 |  | 1.4063 ± 0.0004 | 1.404 ± 0.0004 | 1.402 ± 0.0004 | CCOC(=O)C(=O)OCC [diethyl ethanedioate]
5 | 1.816 ± 0.023 mPa·s | 937.7 ± 0.4 kg/m3 | 1.657 ± 0.021 mPa·s | 932.8 ± 0.4 kg/m3 | 1.542 ± 0.02 mPa·s | 928.2 ± 0.4 kg/m3 |  | 1.4465 ± 0.0004 | 1.444 ± 0.0004 | 1.442 ± 0.0004 | O=C1CCCCC1 [cyclohexanone]
